Experimental data as given in US9820923B2, “Succinate derivatives” (Symrise AG, priority 2013, dated 2017).

Legend:
Heme Oxygenase-1 = experiment: Cellular in vitro heme oxygenase-1 expression assay on NHDF (Western blot); assay type: cell-based, human; conditions: 24 h, 0.0134% b.w.
Protocol: NHDF (normal human dermal fibroblasts) cells were disseminated in a 6-well plate in a concentration of 2×10^5 cells/well (DMEM, 10% FCS). After cultivation in fully enriched medium (DMEM, 10% FCS) for 72 h at 37° C. and 5% CO2, the serum content was reduced to 0.1% to synchronize the cell cycle. Various concentrations of the test substances, the negative control (untreated cells) and tert. butylhydrochinon as positive control, are added and incubated for a further 24 h. The maximum concentration of the test substances used corresponds to 0.2 times the value of the IC20 of the cytotoxicity assay. After cell lysis, the protein amount was determined using the Biorad BCA assay. All samples were adjusted to the same protein level before application on a fast Criterion Gel (Biorad) to perform electrophoresis for 20 minutes at 300 V. Thereafter the proteins were transferred to a PVDF membrane on a semi-dry blotter (30 minutes, 25 V). The blotted membrane is blocked for 4 hours in a 5% milk powder solution in TBST at 4° C. After washing, the membrane is incubated with the first antibody solution HO-1 from abcam (1:500 in 1% milk powder in TBST) over night. […] The resulting band pattern is detected with a chemiluminescence sensitive camera system (Vil-ber Loumat). The quantification was done by densitometry, using the Image J freeware software.

[1] = test system: HHFSC (Human Hair Follicle Stem Cells); experiment: Cellular in vitro stem cell protection assay (UVB-induced apoptosis, caspase 3/7); assay type: cell-based; conditions: light or radiation study, 25 mJ/cm^2 UVB, read-out: Inhibition of UV induced apoptosis [%]
Protocol: HHFSC (Human Hair Follicle Stem Cells) isolated from hair follicle bulge (Celprogen) were cultivated in culture ware pre-coated with Human Hair Follicle Stem Cell Extra-cellular Matrix (Celprogen). The cells were incubated 2 h prior to and 16 h after UVB irradiation with test compounds. Cells were irradiated with 25 mJ/cm^2 UVB in the presence of buffer solution. Apoptosis induction was evaluated by caspase 3/7 protein expression (Caspase-Glo 3/7, Promega) and quantified by chemiluminescence measurement.
The inhibition of apoptosis induction in the presence of test substances was calculated according to the following equation: […]
The abbreviations have the following meanings: • RLU test substance: • RLU of the wells with test substance and with UVB irradiation • RLU control: • RLU of the wells without test substance, but with UVB irradiation • RLU control without UVB: • RLU of the wells without test substance and without UVB irradiation

Hyaluronic acid = experiment: Cellular in vitro hyaluronic acid assay on NHDF (competitive ELISA); assay type: cell-based, human; conditions: 72 h
Protocol: NHDF (normal human dermal fibroblasts) cells were disseminated in a 96-well microtiter plate in a concentration of 2×10^4 cells/well (DMEM, 10% FCS). After cultivation in fully enriched medium (DMEM, 10% FCS) for 72 h at 37° C. and 5% CO2, the serum content was reduced to 0.1% to synchronize the cell cycle and incubated for further 24 h. Various concentrations of the test substances and TGF-beta1 as internal standard are added and incubated for 72 h. The maximum concentration of the test substances used corresponds to 0.2 times the value of the IC20 of the cytotoxicity assay. Hyaluronic acid is quantified by a competitive ELISA (TECOmedical TE1017).
The percent bound for each standard and unknown substance is calculated using the following equation: […]
A standard curve is generated by plotting the aborptions of the given concentrations in a linear proportion. The gradient of the line is determined and the value of the substances calculated as follows: • 1. value=1/RFU • 2. value=((1. value)−b)/m) • Compound of Hyaluronic acid [ng/ml]=2. value*dilution

[2] = test system: B16V mouse melanoma cells; experiment: Depigmentation effect on melanoma cell cultures; assay type: cell-based; conditions: 0.6 mM tyrosine and 10 nM MSH, 96 h, read-out: IC50 (Inhibition of pigmentation)
Protocol: B16V mouse melanoma cells are disseminated in a 96-well micro-titre plate in a concentration of 7.5×10^3 cells/well. After cultivation for 24 h at 37° C. and 5% CO2 in RPMI medium, enriched with 10% foetal calf serum, various concentrations of the test substances and 0.6 mM tyrosine and 10 nM-MSH (-melanocyte stimulating hormone) are added and incubated for a further 96 h. The maximum concentration of the test substances used corresponds to 0.1 times the value of the IC20 value of the cytotoxicity assay. Only tyrosine and -MSH are added to the controls. After incubation, sodium hydroxide solution (final concentrations: 1 M) is added to the culture medium and the absorption (A) is measured after 3 h at 400 nm.
The inhibition of pigmentation in the presence of the test compounds was calculated using the following equation: Inhibition of pigmentation (%)=100−[(Atest compound/Acontrol)×100] wherein • Atest compound=absorption of the wells with test substance and with cells • Acontrol=absorption of the wells without test substance, but with cells
From the inhibition of pigmentation (%) in a series of dilutions of test compounds, the IC50 for each test compound is calculated. This is the concentration of a test compound at which pigmentation is inhibited by 50%.

[3] = test system: Primary human dermal fibroblasts; experiment: Cellular in vitro DCF assay (intracellular ROS); assay type: cell-based; set-up: unit of the concentration uncertain
Protocol: Primary human dermal fibroblasts (Lonza) are disseminated in a 96-well microtiter plate in a concentration of 1×10^4 cells/well (DMEM, 10% FKS). After cultivation in fully enriched medium (DMEM, 10% FCS) for 24 h at 37° C. and 5% CO2, the serum content was reduced to 0.1% for further 24 h to synchronize the cell cycle. Confluence was supposed to be around 70% at the time, the incubation with the test substances began. Various concentrations of the test substances, two backgrounds (untreated cells), control (possible with solvent) and Trolox as internal standard (1000 μM) were applied to the cells in DMEM and incubated for further 18-20 h. […], 100 μl H2DCF-DA-solution (2,7-Dichlorfluorescein, 10 μM) incl. DAPI (1:1000) was added to all samples (excluded the background-control) and incubated for one hour to de-esterify the H2DCF-DA by cellular esterases. The resulting H2DCF was thereby trapped inside the cell. After the incubation, the cells were washed and the prooxidant challenge was set (1 mM, 1 h). The resulting fluorescence was read at Ex 504 nm; Em 524 nm. An increased level of ROS (reactive oxygen species) led to an increased amount of fluorescence.
Results are mean values from 2 independent experiments with quadruple determinations each.
The inhibition of the oxidation in the presence of test substances was calculated according to the following equation: […]
The abbreviations have the following meanings: • RFU DAPI: Relative fluorescence units (Ex 380/20, Em 440/40) of the wells with test substance, DAPI and DCF treatment, with cells • RFU DCF: Relative fluorescence units (Ex 485/20, Em 528/20) of the wells with test substance, DAPI and DCF treatment, with cells • RFU control: Relative fluorescence units of the wells without test substance, DAPI and DCF treatment, with cells (The control was calculated like the other samples.) • RFU BLANK: Relative fluorescence units of the wells without test substance, without DAPI and DCF treatment but with cells

CC1CC(OC(=O)CCC(=O)N(C)C)CC(C)(C)C1 (stereo not shown) [S7a/S7b**]
Up-regulation (HO1-Amount relative to control) (Heme Oxygenase-1): 14.5-fold
inhibition at 20 µM ([1]; 0.02 mM): 5%
inhibition at 200 µM ([1]; 0.20 mM): 32%
Stimulation (Hyaluronic acid stimulation relative to control) (Hyaluronic acid; 0.00012 % b.w.): 34.4%
Stimulation (Hyaluronic acid stimulation relative to control) (Hyaluronic acid; 0.00120 % b.w.): 67.3%
IC50 [2]: 18.4 µM
Intracellular ROS reduction [%] ([3]; concentration 1 (unit uncertain)): −2%
Intracellular ROS reduction [%] ([3]; concentration 10 (unit uncertain)): 11%
Intracellular ROS reduction [%] ([3]; concentration 50 (unit uncertain)): 16.3%
Intracellular ROS reduction [%] ([3]; concentration 100 (unit uncertain)): 19.5%
